Reference: US20240376100A1 (Redona Therapeutics, Inc., priority 2021, published 2024)
Counter-ions that a name gives are not always drawn.

Target: PAPD5 enzyme (Homo sapiens, UniProt Q8NDF8)
Test: PAPD5 assay (AMP incorporation onto 3'-terminus of RNA substrate, fluorescence quench)
Type: biochemical
Details: PAPD5 protein 0.3 nM, ATP 50 μM, 30 minutes preincubation, room temperature; read-out: Potency PAPD5 IC50
Protocol: The purpose of the PAPD5 assay is to determine compound potency against PAPD5 enzyme through the measurement of IC50. Compound inhibition is measured as a function of AMP incorporation onto the 3′-terminus of an RNA substrate in the presence of active PAPD5, ATP, and inhibitor. The PAPD5 assay was done in a black, non-binding, 384 well plate (Corning #3575). All steps were performed at room temperature. For a typical assay, a 40 ul aliquot of assay buffer (50 mM HEPES pH 7.3, 20 mM KCl, 10 mM MgCl2, 10 mMM DTT, 0.01% Triton X-100, 40 U/ml RNAsin (Promega)) containing PAPD5 protein (final 10 concentration: 0.3 nM) and ATP (final concentration 50 μM) was added to each well. Next, 1 ul of compound in 100% DMSO is transferred from a compound dilution plate in which the compound is serially diluted. The plate was placed on a plate shaker for 30 seconds to produce mixing, then incubated for 30 minutes. Next, 10 ul of a 5× mix of RNA substrate (5′-fluorescein-AUAGAG-3′ (IDT)) and a DNA oligonucleotide that is complementary to the AMP modified RNA product (5′-TCTCTATT-3′-TAMRA, wherein the first two nucleotides are locked nucleic acids (IDT)) was added (final concentrations: 5 nM and 20 nM, respectively). The plate was placed on a plate shaker for 30 seconds to produce mixing then immediately placed in a Biotek Cytation 5 plate reader, and the time-dependent decrease in fluorescein fluorescence resulting from annealing of the TAMRA labeled quenching probe was recorded, using the kinetics mode of the reader (typical run time is 90 minutes). Reaction rates were obtained using linear fits to the early portion of progress curves. IC50 values were calculated using a four-parameter fit with 100% enzyme activity determined from the DMSO control and 0% activity from control samples lacking UTP.
“+” represents an IC50 value that is greater than 50 PM; “++” represents an IC50 value that is greater than 10 μM and equal to or less than 50 μM; “+++” represents an IC50 value that is greater than 1 μM and equal to or less than 10 μM; and “++++” represents an IC50 value that is equal to or less than 1 μM.

PAPD5 enzyme, sequence (Q8NDF8 whole entry): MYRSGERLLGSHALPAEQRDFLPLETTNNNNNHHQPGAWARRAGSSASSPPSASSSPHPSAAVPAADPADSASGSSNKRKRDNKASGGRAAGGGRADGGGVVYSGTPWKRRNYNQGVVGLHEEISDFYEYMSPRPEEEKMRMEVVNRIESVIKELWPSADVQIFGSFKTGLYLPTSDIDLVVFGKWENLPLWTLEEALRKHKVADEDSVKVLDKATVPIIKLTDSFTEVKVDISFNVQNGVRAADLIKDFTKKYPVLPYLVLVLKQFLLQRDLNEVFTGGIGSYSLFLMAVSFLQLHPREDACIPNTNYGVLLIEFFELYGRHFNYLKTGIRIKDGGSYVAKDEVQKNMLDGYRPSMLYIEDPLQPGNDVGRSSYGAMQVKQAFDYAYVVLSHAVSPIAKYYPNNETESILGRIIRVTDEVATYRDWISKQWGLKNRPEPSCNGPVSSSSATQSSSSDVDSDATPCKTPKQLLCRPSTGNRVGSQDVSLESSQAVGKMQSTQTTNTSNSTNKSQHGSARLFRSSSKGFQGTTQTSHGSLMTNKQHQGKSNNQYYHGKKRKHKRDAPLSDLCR

IC50, ≤ 1000 nM:
O=C(O)c1cn(C2CCN(C(=O)c3ccccc3)CC2)c2cc(N3Cc4cccnc4C3)c(Cl)cc2c1=O [Example 84, 1-(1-benzoylpiperidin-4-yl)-6-chloro-7-(5,7-dihydro-6H-pyrrolo[3,4-b]pyridin-6-yl)-4-oxo-1,4-dihydroquinoline-3-carboxylic acid]
CCOC(=O)c1cn(-c2ccc(N)nc2)c2cc(N3Cc4cccnc4C3)c(Cl)cc2c1=O [Example 89]
O=C(O)c1cn(-c2ccc(CO)cc2F)c2cc(N3Cc4cccnc4C3)c(Cl)cc2c1=O [Example 17, 6-chloro-7-(5,7-dihydro-6H-pyrrolo[3,4-b]pyridin-6-yl)-1-(2-fluoro-4-(hydroxymethyl)phenyl)-4-oxo-1,4-dihydroquinoline-3-carboxylic acid]
Cc1cc2c(=O)c(C(=O)O)cn(-c3cnc(NC(=O)OC(C)(C)C)cc3C)c2cc1N1Cc2cccnc2C1 [Example 142, 1-(6-((tert-butoxycarbonyl)amino)-4-methylpyridin-3-yl)-7-(5,7-dihydro-6H-pyrrolo[3,4-b]pyridin-6-yl)-6-methyl-4-oxo-1,4-dihydroquinoline-3-carboxylic acid]
Cc1cc(NC(=O)OC(C)(C)C)ncc1-n1cc(C(=O)O)c(=O)c2cc(Cl)c(N3Cc4cccc(F)c4C3)nc21 [Example 166, 1-(6-((tert-butoxycarbonyl)amino)-4-methylpyridin-3-yl)-6-chloro-7-(4-fluoroisoindolin-2-yl)-4-oxo-1,4-dihydro-1,8-naphthyridine-3-carboxylic acid]
Nc1cc(C2CC2)c(-n2cc(C(=O)O)c(=O)c3cc(Cl)c(N4Cc5cccnc5C4)cc32)cn1 [Example 118, 1-(6-amino-4-cyclopropylpyridin-3-yl)-6-chloro-7-(5,7-dihydro-6H-pyrrolo[3,4-b]pyridin-6-yl)-4-oxo-1,4-dihydroquinoline-3-carboxylic acid]
CN1CCC(n2cc(C(=O)O)c(=O)c3cc(Cl)c(N4Cc5cccnc5C4)cc32)CC1 [Example 121, 6-chloro-7-(5,7-dihydro-6H-pyrrolo[3,4-b]pyridin-6-yl)-1-(1-methylpiperidin-4-yl)-4-oxo-1,4-dihydroquinoline-3-carboxylic acid]
COCCN(C)c1cc2c(cc1Cl)c(=O)c(C(=O)O)cn2-c1cnc(N)cc1C [Example 132, 1-(6-amino-4-methylpyridin-3-yl)-6-chloro-7-((2-methoxyethyl)(methyl)amino)-4-oxo-1,4-dihydroquinoline-3-carboxylic acid]
N#Cc1cc2c(=O)c(C(=O)O)cn(-c3cnc(N)cn3)c2cc1N1Cc2cccnc2C1 [Example 96, 1-(5-aminopyrazin-2-yl)-6-cyano-7-(5,7-dihydro-6H-pyrrolo[3,4-b]pyridin-6-yl)-4-oxo-1,4-dihydroquinoline-3-carboxylic acid]
Nc1ccc(-n2cc(C(=O)O)c(=O)c3cc(Cl)c(N4Cc5ccccc5C4)cc32)cn1 [Example 194, 1-(6-aminopyridin-3-yl)-6-chloro-7-(isoindolin-2-yl)-4-oxo-1,4-dihydroquinoline-3-carboxylic acid]
COCCN(C)c1ccn(-c2cc3c(cc2Cl)c(=O)c(C(=O)O)cn3-c2ccc(N)nc2)n1 [Example 94, 1-(6-aminopyridin-3-yl)-6-chloro-7-(3-((2-methoxyethyl)(methyl)amino)-1H-pyrazol-1-yl)-4-oxo-1,4-dihydroquinoline-3-carboxylic acid]
Nc1ccc(-n2cc(C(=O)O)c(=O)c3cc(Cl)c(N4Cc5cccnc5C4)nc32)cn1 [Example 51, 1-(6-aminopyridin-3-yl)-6-chloro-7-(5,7-dihydro-6H-pyrrolo[3,4-b]pyridin-6-yl)-4-oxo-1,4-dihydro-1,8-naphthyridine-3-carboxylic acid]
O=C(O)c1cn(-c2ccc(O)cc2F)c2cc(N3Cc4cccnc4C3)c(Cl)cc2c1=O [Example 27, 6-chloro-7-(5,7-dihydro-6H-pyrrolo[3,4-b]pyridin-6-yl)-1-(2-fluoro-4-hydroxyphenyl)-4-oxo-1,4-dihydroquinoline-3-carboxylic acid]
O=C(O)c1cn(Cc2ccccn2)c2nc(N3Cc4cccnc4C3)c(Cl)cc2c1=O [Example 65, 6-chloro-7-(5,7-dihydro-6H-pyrrolo[3,4-b]pyridin-6-yl)-4-oxo-1-(pyridin-2-ylmethyl)-1,4-dihydro-1,8-naphthyridine-3-carboxylic acid]
Cc1cc(N)ncc1-n1cc(C(=O)O)c(=O)c2cc(Cl)c(N3Cc4ccc(F)cc4C3)nc21 [Example 160, 1-(6-amino-4-methylpyridin-3-yl)-6-chloro-7-(5-fluoroisoindolin-2-yl)-4-oxo-1,4-dihydro-1,8-naphthyridine-3-carboxylic acid]
O=C(O)c1cn(-c2ccc(O)cc2F)c2cc(-n3ccc(Cl)n3)c(F)cc2c1=O [Example 12, 7-(3-chloro-1H-pyrazol-1-yl)-6-fluoro-1-(2-fluoro-4-hydroxyphenyl)-4-oxo-1,4-dihydroquinoline-3-carboxylic acid]
O=C(O)c1cn(-c2cnc(N3CCC3)cn2)c2cc(N3Cc4cccnc4C3)c(Cl)cc2c1=O [Example 201, 1-(5-(azetidin-1-yl)pyrazin-2-yl)-6-chloro-7-(5,7-dihydro-6H-pyrrolo[3,4-b]pyridin-6-yl)-4-oxo-1,4-dihydroquinoline-3-carboxylic acid]
Cc1cc(N)ncc1-n1cc(C(=O)O)c(=O)c2cc(Cl)c(-n3cccn3)nc21 [Example 153, 1-(6-amino-4-methylpyridin-3-yl)-6-chloro-4-oxo-7-(1H-pyrazol-1-yl)-1,4-dihydro-1,8-naphthyridine-3-carboxylic acid]
O=C(O)c1cn(CC2CCNCC2)c2cc(N3Cc4cccnc4C3)c(Cl)cc2c1=O [Example 119, 6-chloro-7-(5,7-dihydro-6H-pyrrolo[3,4-b]pyridin-6-yl)-4-oxo-1-(piperidin-4-ylmethyl)-1,4-dihydroquinoline-3-carboxylic acid hydrochloride]
N#Cc1cc2c(=O)c(C(=O)O)cn(-c3ccc(N4CCC4)nc3)c2cc1N1Cc2cccnc2C1 [Example 49, 1-(6-(azetidin-1-yl)pyridin-3-yl)-6-cyano-7-(5,7-dihydro-6H-pyrrolo-[3,4-b]pyridin-6-yl)-4-oxo-1,4-dihydroquinoline-3-carboxylic acid]
CC(C)(C)OC(=O)N1CCC(n2cc(C(=O)O)c(=O)c3cc(Cl)c(N4Cc5cccnc5C4)nc32)CC1 [Example 73, 1-(1-(tert-butoxycarbonyl)piperidin-4-yl)-6-chloro-7-(5,7-dihydro-6H-pyrrolo[3,4-b]pyridin-6-yl)-4-oxo-1,4-dihydro-1,8-naphthyridine-3-carboxylic acid]
